Measured values from PubChem BioAssay (NCI).
Values joined by “and” are separate entries in the source; they are usually repeats but may differ in a detail not shown here. Equal values may be shown once.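 Each compound was tested at five concentrations against cells in 96-well plates for 48 hours. GI50 is the concentration that inhibits growth by half. TGI is the concentration that stops growth completely.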

Columns and labels:
Test in all cases: DTP human tumour cell line panel, 48 h
[1] = system: ACHN renal
[2] = system: COLO 205 colon
[3] = system: HOP-92 NSCLC
[4] = system: M14 melanoma
[5] = system: NCI-H226 lung
[6] = system: NCI-H522 lung
[7] = system: OVCAR-8 ovarian
[8] = system: SF-539 CNS
[9] = system: SK-OV-3 ovarian
[10] = system: UACC-257 melanoma

Row | SMILES | GI50 [1] | TGI [1] | GI50 [2] | TGI [2] | GI50 [3] | TGI [3] | GI50 [4] | TGI [4] | GI50 [5] | TGI [5] | GI50 [6] | TGI [6] | GI50 [7] | TGI [7] | GI50 [8] | TGI [8] | GI50 [9] | TGI [9] | GI50 [10] | TGI [10]
1 | CC12CCC(=O)C(O1)C1C(=O)c3cc4ccccc4cc3C(=O)C12 (centres undefined) | 15.8 µM | 31.1 µM | 19.9 µM | 47.1 µM | 13.9 µM | 29.7 µM | 21.5 µM | 53.3 µM | 14400 nM | 41.9 µM | 21.9 µM | 52.3 µM | 22.1 µM | 54.9 µM | 21.8 µM | 59.3 µM | 46.6 µM | > 100 µM | 16.2 µM | 32.5 µM
2 | Nc1nc(/C=C\c2ccc([N+](=O)[O-])o2)nc(N2CCN(c3ccccc3)CC2)n1 | 4.45 µM | 21.6 µM | 2.88 µM | 21.9 µM | 6.86 µM | 44.3 µM | 4.01 µM | 26.7 µM | 17500 nM | 52.8 µM | 3.02 µM | 9.94 µM | 25.8 µM | > 100 µM | 16.7 µM | 34 µM | 17.1 µM | 44.7 µM | 11.5 µM | 41.3 µM
3 | O=C1c2ccccc2C(=O)N1CC1(C(=O)O)NCCS1(=O)=O (centres undefined) | – | > 100 µM | – | > 100 µM | – | > 100 µM | – | > 100 µM | – | > 100 µM | – | > 100 µM | – | > 100 µM | – | > 100 µM | – | > 100 µM | – | > 100 µM
4 | CS(=O)(=O)CC1=Nc2nnc(CCCCCCCc3nnc4n3C(=O)C(CS(C)(=O)=O)=N4)n2C1=O | – | > 100 µM | – | > 100 µM | – | > 100 µM | – | > 100 µM | – | > 100 µM | – | > 100 µM | – | > 100 µM | – | > 100 µM | – | > 100 µM | – | > 100 µM
5 | N#Cc1ncc(/N=C/c2ccc(N(CCCl)CCCl)cc2)s1 | 5.13 µM | 41.6 µM | 64 µM | > 100 µM | 24.7 µM | 93.3 µM | 35.2 µM | > 100 µM | 897 nM | 7.71 µM | 29.8 µM | > 100 µM | 7.58 µM | > 100 µM | 16.8 µM | > 100 µM | 27.7 µM | > 100 µM | 13.3 µM | 63 µM
6 | CCCN(Cc1ccc(F)cc1)c1ccc(CO)c(Cl)c1 | 9.98 µM | 22.8 µM | 3.96 µM | 13.6 µM | 2.66 µM | 14.2 µM | 14.3 µM | 32.9 µM | 36.5 nM | 0.144 µM | 9.5 µM | 22.6 µM | 11.5 µM | 25.8 µM | 15.3 µM | 29 µM | 6.31 µM | 19 µM | 0.207 µM | 0.776 µM
7 | CC1=C2CCCC2C/C(=N/Nc2ccc([N+](=O)[O-])cc2[N+](=O)[O-])CC1 (centres undefined) | – | > 100 µM | – | > 100 µM | – | > 100 µM | – | > 100 µM | – | > 100 µM | – | > 100 µM | – | > 100 µM | – | > 100 µM | – | > 100 µM | – | > 100 µM
8 | C=C(C)[C@@H]1CC[C@]2(C(=O)NCCCN)CC[C@]3(C)[C@H](CC[C@@H]4[C@@]5(C)CC[C@H](O)C(C)(C)[C@@H]5CC[C@]43C)[C@@H]12 | 21.7 µM | 59.9 µM | 21 µM | > 100 µM | 10.8 µM | 35.4 µM | 24.7 µM | > 100 µM | 21200 nM | > 100 µM | 21 µM | 68.9 µM | 27.7 µM | 87.7 µM | 17.9 µM | 52 µM | 17.7 µM | 49.4 µM | 20.6 µM | 55.3 µM
9 | CCC[CH2][Sn]([CH2]CCC)([O]C(C)=O)[O]C(C)=O | 1.44 µM | 2.75 µM | 1.81 µM | 4.29 µM | 1.92 µM | 4.13 µM | 1.74 µM | 4.26 µM | 1530 nM | 3.01 µM | 0.147 µM | 0.324 µM | 1.9 µM | 4.6 µM | 1.53 µM | 3.19 µM | 1.93 µM | 3.95 µM | 1.39 µM | 3.26 µM
10 | COc1cccc(C2=C(c3cn(C)c4ccccc34)C(=O)NC2=O)c1 | 7.76 µM | > 25 µM | 9.92 µM | > 25 µM | > 25 µM | > 25 µM | 18.9 µM | > 25 µM | 7960 nM | > 25 µM | 6.35 µM | 25 µM | 8.25 µM | > 25 µM | 16.5 µM | > 25 µM | 12.7 µM | > 25 µM | 15.7 µM | > 25 µM
11 | CCn1c(-c2nonc2N)nc2cncc(C(=O)N3CCNCC3)c21 | > 25 µM | > 25 µM | > 25 µM | > 25 µM | > 25 µM | > 25 µM | > 25 µM | > 25 µM | > 25000 nM | > 25 µM | > 25 µM | > 25 µM | > 25 µM | > 25 µM | > 25 µM | > 25 µM | > 25 µM | > 25 µM | > 25 µM | > 25 µM
12 | O=C(Nc1cccc(Cl)c1)Nc1ncc(CCNc2ncnc3ccsc23)s1 | 2.3 µM and 2.06 µM | 16.8 µM and > 10 µM | < 0.0105 µM and 0.00997 µM | 8.36 µM and 3.88 µM | 0.549 µM and 1.55 µM | 10.9 µM and > 10 µM | 2.3 µM and 1.91 µM | 11.6 µM and > 10 µM | 1860 nM and 2060 nM | 8.98 µM and > 10 µM | 1.76 µM and 1.34 µM | 9.89 µM and > 10 µM | 1.68 µM and 1.22 µM | 9.64 µM and 5.31 µM | 0.635 µM and 0.53 µM | 16.9 µM and > 10 µM | 9.12 µM and 4.86 µM | 24.1 µM and > 10 µM | 2.12 µM and 1.22 µM | 11.4 µM and 9.27 µM
13 | O=c1cc(CNc2cc(F)cc(F)c2)c2ccc(I)cc2[nH]1 | 0.75 µM | > 100 µM | 0.606 µM | > 100 µM | 1.42 µM | > 100 µM | 0.52 µM | > 100 µM | – | > 100 µM | 0.305 µM | > 100 µM | 2.83 µM | > 100 µM | 0.461 µM | > 69.9 µM | 1.11 µM | > 100 µM | > 100 µM | > 100 µM
